Measured values as given in ChEMBL document CHEMBL4507324 (2021).

Tests used:
Conditions in all cases: Compound concentration 100.0 nM
[1] = test system: Tyrosine-protein kinase ABL1 (Homo sapiens), P00519 [H396P]
[2] = test system: Tyrosine-protein kinase ABL1 (Homo sapiens), P00519 [M351T]
[3] = molecular target: RAC-gamma serine/threonine-protein kinase (Homo sapiens) (UniProt Q9Y243)
[4] = molecular target: ALK tyrosine kinase receptor (Homo sapiens) (UniProt Q9UM73)
[5] = molecular target: Ankyrin repeat and protein kinase domain-containing protein 1 (Homo sapiens) (UniProt Q8NFD2)
[6] = molecular target: Calcium/calmodulin-dependent protein kinase kinase 2 (Homo sapiens) (UniProt Q96RR4)
Calcium/calmodulin-dependent protein kinase kinase 2 (Homo sapiens), sequence (Q96RR4 2-588 limits assumed): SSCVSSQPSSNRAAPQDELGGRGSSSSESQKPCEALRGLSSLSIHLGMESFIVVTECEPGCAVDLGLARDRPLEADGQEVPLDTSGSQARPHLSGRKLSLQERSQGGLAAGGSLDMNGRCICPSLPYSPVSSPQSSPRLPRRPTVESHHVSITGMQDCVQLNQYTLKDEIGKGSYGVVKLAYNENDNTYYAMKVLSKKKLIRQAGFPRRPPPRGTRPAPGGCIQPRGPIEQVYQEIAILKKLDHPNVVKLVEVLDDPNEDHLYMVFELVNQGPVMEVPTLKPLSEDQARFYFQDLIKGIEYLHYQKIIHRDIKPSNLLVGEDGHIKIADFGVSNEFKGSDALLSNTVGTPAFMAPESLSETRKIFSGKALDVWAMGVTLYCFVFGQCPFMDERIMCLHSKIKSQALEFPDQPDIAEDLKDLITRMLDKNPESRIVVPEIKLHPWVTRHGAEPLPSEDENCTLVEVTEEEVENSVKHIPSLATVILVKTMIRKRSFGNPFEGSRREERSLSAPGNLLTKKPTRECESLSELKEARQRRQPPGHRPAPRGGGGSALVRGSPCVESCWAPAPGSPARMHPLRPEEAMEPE

[7] = molecular target: Serine/threonine-protein kinase Chk2 (Homo sapiens, UniProt O96017)
[8] = molecular target: Dual specificity protein kinase CLK1 (Homo sapiens) (UniProt P49759)
Dual specificity protein kinase CLK1 (Homo sapiens), sequence (P49759 whole entry, looked up): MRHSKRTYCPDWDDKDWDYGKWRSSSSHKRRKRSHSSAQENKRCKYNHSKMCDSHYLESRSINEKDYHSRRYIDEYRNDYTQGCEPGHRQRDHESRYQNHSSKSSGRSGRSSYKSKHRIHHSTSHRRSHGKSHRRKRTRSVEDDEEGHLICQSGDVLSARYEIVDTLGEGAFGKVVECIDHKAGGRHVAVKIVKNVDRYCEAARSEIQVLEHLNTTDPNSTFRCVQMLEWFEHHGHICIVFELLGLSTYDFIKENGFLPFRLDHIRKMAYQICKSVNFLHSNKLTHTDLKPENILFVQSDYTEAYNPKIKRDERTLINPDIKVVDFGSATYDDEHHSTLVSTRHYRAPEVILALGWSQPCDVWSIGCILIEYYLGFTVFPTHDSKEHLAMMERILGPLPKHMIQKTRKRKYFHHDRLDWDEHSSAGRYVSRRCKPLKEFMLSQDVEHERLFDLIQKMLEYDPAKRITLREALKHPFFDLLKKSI

[9] = molecular target: Macrophage colony-stimulating factor 1 receptor (Homo sapiens) (UniProt P07333)
Macrophage colony-stimulating factor 1 receptor (Homo sapiens), sequence (P07333 whole entry): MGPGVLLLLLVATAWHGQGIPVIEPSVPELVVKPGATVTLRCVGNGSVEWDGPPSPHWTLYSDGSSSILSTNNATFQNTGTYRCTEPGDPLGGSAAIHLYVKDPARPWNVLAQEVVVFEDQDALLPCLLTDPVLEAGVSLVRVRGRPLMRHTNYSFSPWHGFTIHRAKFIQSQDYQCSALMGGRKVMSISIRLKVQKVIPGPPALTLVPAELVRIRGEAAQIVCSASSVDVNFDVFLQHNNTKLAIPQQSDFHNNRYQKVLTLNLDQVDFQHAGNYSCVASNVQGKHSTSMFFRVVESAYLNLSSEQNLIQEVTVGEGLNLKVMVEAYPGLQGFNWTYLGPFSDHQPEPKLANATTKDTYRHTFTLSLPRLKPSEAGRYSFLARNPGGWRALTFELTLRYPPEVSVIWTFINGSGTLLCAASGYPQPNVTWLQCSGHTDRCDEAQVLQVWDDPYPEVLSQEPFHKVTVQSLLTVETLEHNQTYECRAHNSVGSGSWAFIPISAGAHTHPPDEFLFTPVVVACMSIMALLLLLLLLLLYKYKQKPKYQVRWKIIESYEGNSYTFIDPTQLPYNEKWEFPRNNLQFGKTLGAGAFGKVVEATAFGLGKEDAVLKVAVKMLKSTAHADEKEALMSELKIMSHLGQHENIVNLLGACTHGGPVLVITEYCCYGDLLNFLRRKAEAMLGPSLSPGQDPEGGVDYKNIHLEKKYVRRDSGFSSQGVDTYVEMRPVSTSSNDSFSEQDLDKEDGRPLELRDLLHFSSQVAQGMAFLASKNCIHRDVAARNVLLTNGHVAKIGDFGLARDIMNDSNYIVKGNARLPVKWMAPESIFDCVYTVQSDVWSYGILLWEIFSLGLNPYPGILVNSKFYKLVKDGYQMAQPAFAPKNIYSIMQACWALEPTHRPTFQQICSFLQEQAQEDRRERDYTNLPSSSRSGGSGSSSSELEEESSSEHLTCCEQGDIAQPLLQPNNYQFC

[10] = molecular target: Dual specificity tyrosine-phosphorylation-regulated kinase 2 (Homo sapiens) (UniProt Q92630)
[11] = molecular target: Epidermal growth factor receptor (Homo sapiens) (UniProt P00533)
[12] = test system: Epidermal growth factor receptor (Homo sapiens), P00533 [UNDEFINED MUTATION]
[13] = molecular target: Ephrin type-B receptor 2 (Homo sapiens) (UniProt P29323)
[14] = molecular target: Ephrin type-B receptor 6 (Homo sapiens) (UniProt O15197)
Ephrin type-B receptor 6 (Homo sapiens), sequence (O15197 whole entry): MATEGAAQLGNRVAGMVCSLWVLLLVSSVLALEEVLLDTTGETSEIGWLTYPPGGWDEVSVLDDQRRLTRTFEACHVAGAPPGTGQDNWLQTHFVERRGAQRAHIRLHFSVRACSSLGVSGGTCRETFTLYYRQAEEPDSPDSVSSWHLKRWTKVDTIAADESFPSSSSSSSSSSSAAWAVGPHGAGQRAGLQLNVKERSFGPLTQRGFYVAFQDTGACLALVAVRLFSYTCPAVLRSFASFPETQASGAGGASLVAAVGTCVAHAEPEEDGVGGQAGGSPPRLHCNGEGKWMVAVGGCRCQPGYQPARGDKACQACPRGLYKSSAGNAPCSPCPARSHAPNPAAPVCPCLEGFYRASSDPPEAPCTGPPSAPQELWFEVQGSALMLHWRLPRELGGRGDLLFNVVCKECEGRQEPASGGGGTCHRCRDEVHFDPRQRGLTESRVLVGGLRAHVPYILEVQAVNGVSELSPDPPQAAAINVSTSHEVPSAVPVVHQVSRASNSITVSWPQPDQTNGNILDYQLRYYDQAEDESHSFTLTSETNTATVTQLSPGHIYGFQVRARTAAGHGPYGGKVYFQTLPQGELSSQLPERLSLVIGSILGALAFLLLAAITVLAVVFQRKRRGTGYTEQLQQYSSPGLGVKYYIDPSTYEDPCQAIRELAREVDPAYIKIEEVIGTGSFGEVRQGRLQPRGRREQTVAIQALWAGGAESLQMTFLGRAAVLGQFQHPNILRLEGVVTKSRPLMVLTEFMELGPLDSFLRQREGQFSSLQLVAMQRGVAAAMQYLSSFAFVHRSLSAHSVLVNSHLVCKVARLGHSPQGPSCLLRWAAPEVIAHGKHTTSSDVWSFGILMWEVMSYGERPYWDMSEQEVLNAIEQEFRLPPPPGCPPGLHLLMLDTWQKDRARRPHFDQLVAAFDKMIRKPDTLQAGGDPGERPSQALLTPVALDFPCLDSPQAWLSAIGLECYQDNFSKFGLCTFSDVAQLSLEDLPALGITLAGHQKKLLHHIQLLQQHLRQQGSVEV

[15] = molecular target: Fibroblast growth factor receptor 2 (Homo sapiens) (UniProt P21802)
Fibroblast growth factor receptor 2 (Homo sapiens), sequence (P21802 22-821 limits assumed): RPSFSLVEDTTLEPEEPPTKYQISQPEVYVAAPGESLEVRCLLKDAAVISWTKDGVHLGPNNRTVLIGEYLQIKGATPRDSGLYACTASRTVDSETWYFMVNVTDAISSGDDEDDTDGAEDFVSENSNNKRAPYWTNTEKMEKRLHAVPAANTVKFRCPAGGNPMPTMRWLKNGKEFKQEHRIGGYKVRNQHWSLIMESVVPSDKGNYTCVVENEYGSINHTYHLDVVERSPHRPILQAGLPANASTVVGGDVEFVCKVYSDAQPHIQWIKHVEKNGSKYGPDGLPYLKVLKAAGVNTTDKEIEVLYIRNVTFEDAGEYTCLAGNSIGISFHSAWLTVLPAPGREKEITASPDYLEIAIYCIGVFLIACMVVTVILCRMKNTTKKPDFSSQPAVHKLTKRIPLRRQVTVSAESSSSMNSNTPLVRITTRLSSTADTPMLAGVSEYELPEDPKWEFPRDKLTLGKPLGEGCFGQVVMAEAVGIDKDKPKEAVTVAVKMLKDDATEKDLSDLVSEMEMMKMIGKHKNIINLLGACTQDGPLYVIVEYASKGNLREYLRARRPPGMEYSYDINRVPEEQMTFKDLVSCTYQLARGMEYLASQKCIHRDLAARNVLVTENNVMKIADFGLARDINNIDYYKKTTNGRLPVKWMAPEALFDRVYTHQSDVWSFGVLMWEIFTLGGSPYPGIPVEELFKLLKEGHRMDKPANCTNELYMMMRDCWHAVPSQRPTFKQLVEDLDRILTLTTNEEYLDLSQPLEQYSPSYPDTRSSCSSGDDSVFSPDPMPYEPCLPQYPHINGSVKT

[16] = molecular target: Beta-adrenergic receptor kinase 1 (Homo sapiens) (UniProt P25098)
[17] = molecular target: Glycogen synthase kinase-3 alpha (Homo sapiens) (UniProt P49840)
[18] = molecular target: Homeodomain-interacting protein kinase 3 (Homo sapiens) (UniProt Q9H422)
[19] = molecular target: Interleukin-1 receptor-associated kinase 3 (Homo sapiens) (UniProt Q9Y616)
[20] = molecular target: Interleukin-1 receptor-associated kinase 4 (Homo sapiens) (UniProt Q9NWZ3)
Interleukin-1 receptor-associated kinase 4 (Homo sapiens), sequence (Q9NWZ3 whole entry): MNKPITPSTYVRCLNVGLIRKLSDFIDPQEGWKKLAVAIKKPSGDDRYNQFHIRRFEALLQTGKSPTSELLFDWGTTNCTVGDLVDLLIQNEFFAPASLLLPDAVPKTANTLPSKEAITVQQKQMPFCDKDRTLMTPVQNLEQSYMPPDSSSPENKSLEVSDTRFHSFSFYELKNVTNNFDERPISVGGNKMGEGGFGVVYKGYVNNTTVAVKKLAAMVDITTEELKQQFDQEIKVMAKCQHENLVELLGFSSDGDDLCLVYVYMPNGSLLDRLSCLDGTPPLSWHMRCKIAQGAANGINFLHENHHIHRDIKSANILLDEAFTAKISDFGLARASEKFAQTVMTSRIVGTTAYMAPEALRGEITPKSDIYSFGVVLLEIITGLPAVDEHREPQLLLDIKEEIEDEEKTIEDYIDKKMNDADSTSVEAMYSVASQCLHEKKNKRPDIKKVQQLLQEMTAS

[21] = molecular target: Mitogen-activated protein kinase 8 (Homo sapiens) (UniProt P45983)
[22] = test system: Leucine-rich repeat serine/threonine-protein kinase 2 (Homo sapiens), Q5S007 [G2019S]
[23] = molecular target: Mitogen-activated protein kinase kinase kinase kinase 3 (Homo sapiens) (UniProt Q8IVH8)
[24] = molecular target: Dual specificity mitogen-activated protein kinase kinase 2 (Homo sapiens) (UniProt P36507)
[25] = test system: Hepatocyte growth factor receptor (Homo sapiens), P08581 [M1250T]
[26] = molecular target: Dual specificity mitogen-activated protein kinase kinase 7 (Homo sapiens) (UniProt O14733)
[27] = molecular target: Serine/threonine-protein kinase MRCK alpha (Homo sapiens) (UniProt Q5VT25)
[28] = molecular target: Serine/threonine-protein kinase 4 (Homo sapiens) (UniProt Q13043)
[29] = molecular target: Serine/threonine-protein kinase Nek10 (Homo sapiens) (UniProt Q6ZWH5)
[30] = molecular target: Serine/threonine-protein kinase OSR1 (Homo sapiens) (UniProt O95747)
[31] = molecular target: Serine/threonine-protein kinase PAK 4 (Homo sapiens) (UniProt O96013)
[32] = test system: Phosphatidylinositol 4,5-bisphosphate 3-kinase catalytic subunit alpha isoform (Homo sapiens), P42336 [E542K]
[33] = test system: Phosphatidylinositol 4,5-bisphosphate 3-kinase catalytic subunit alpha isoform (Homo sapiens), P42336 [H1047L]
[34] = molecular target: Serine/threonine-protein kinase PRP4 homolog (Homo sapiens) (UniProt Q13523)
[35] = molecular target: RAF proto-oncogene serine/threonine-protein kinase (Homo sapiens) (UniProt P04049)
[36] = molecular target: Ribosomal protein S6 kinase alpha-2 (Homo sapiens) (UniProt Q15349)
[37] = molecular target: Serine/threonine-protein kinase Sgk3 (Homo sapiens) (UniProt Q96BR1)
Serine/threonine-protein kinase Sgk3 (Homo sapiens), sequence (Q96BR1 whole entry): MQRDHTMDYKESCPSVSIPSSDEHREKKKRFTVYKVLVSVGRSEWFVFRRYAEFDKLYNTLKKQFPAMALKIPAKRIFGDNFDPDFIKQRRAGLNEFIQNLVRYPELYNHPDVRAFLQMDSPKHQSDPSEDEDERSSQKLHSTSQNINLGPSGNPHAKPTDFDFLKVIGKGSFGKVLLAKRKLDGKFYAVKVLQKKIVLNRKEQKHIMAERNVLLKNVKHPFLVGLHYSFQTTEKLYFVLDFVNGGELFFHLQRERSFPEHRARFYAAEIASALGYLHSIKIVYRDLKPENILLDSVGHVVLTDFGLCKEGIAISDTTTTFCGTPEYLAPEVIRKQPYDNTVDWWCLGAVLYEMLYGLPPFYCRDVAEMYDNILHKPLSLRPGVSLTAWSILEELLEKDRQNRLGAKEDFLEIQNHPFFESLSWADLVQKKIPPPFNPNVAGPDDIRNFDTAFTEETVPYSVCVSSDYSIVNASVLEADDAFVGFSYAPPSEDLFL

[38] = molecular target: Proto-oncogene tyrosine-protein kinase Src (Homo sapiens) (UniProt P12931)
[39] = molecular target: Serine/threonine-protein kinase TAO3 (Homo sapiens) (UniProt Q9H2K8)
[40] = molecular target: Non-receptor tyrosine-protein kinase TNK1 (Homo sapiens) (UniProt Q13470)
[41] = molecular target: Transient receptor potential cation channel subfamily M member 6 (Homo sapiens) (UniProt Q9BX84)
[42] = molecular target: Tyrosine-protein kinase TXK (Homo sapiens) (UniProt P42681)
[43] = molecular target: Serine/threonine-protein kinase WNK3 (Homo sapiens) (UniProt Q9BYP7)
[44] = molecular target: Mitogen-activated protein kinase kinase kinase 20 (Homo sapiens) (UniProt Q9NYL2)

CS(=O)(=O)N1CCCC(NC(=O)[C@H](CCC2CCCCC2)NC(=O)c2ccc(CNc3ncnc4c3nnn4-c3ccccc3)cc2)C1 (stereo partly drawn) [SR-301] showed a residual activity [1] of 99%, a residual activity [2] of 100% and a residual activity [3] of 86%. It also gave a residual activity [4] of 100%, a residual activity [5] of 80% and a residual activity [6] of 78%. For the same compound, the residual activity [7] was 100%, the residual activity [8] was 87% and the residual activity [9] was 100%. For the same compound, the residual activity [10] was 100%, the residual activity [11] was 100% and the residual activity [12] was 100%. It also gave a residual activity [13] of 87%, a residual activity [14] of 100% and a residual activity [15] of 97%. For the same compound, the residual activity [16] was 72%, the residual activity [17] was 100% and the residual activity [18] was 100%. For the same compound, the residual activity [19] was 100%, the residual activity [20] was 100% and the residual activity [21] was 85%. The residual activity [22] was 100%, the residual activity [23] was 75% and the residual activity [24] was 90%. For the same compound, the residual activity [25] was 87%, the residual activity [26] was 100% and the residual activity [27] was 100%. The residual activity [28] was 100%, the residual activity [29] was 100% and the residual activity [30] was 100%. It also gave a residual activity [31] of 100%, a residual activity [32] of 64% and a residual activity [33] of 76%. It also gave a residual activity [34] of 60%, a residual activity [35] of 70% and a residual activity [36] of 100%. The residual activity [37] was 83%, the residual activity [38] was 94% and the residual activity [39] was 100%. The residual activity [40] was 96%, the residual activity [41] was 96% and the residual activity [42] was 77%. For the same compound, the residual activity [43] was 85% and the residual activity [44] was 89%.
Compound CS(=O)(=O)N1CCCC(NC(=O)[C@H](CCC2CCCCC2)NC(=O)c2ccc(CNC(=O)c3cnc4ccccn34)cc2)C1 (stereo partly drawn) [SR-302] has a residual activity [1] of 35%, a residual activity [2] of 100% and a residual activity [3] of 100%. The residual activity [4] was 100%, the residual activity [5] was 92% and the residual activity [6] was 88%. The residual activity [7] was 37%, the residual activity [8] was 86% and the residual activity [9] was 65%. For the same compound, the residual activity [10] was 100%, the residual activity [11] was 76% and the residual activity [12] was 66%. The residual activity [13] was 100%, the residual activity [14] was 98% and the residual activity [15] was 100%. The residual activity [16] was 88%, the residual activity [17] was 100% and the residual activity [18] was 100%. It also gave a residual activity [19] of 65%, a residual activity [20] of 100% and a residual activity [21] of 100%. It also gave a residual activity [22] of 100%, a residual activity [23] of 87% and a residual activity [24] of 100%. The residual activity [25] was 69%, the residual activity [26] was 95% and the residual activity [27] was 100%. For the same compound, the residual activity [28] was 100%, the residual activity [29] was 100% and the residual activity [30] was 94%. For the same compound, the residual activity [31] was 100%, the residual activity [32] was 78% and the residual activity [33] was 100%. It also gave a residual activity [34] of 74%, a residual activity [35] of 61% and a residual activity [36] of 80%. For the same compound, the residual activity [37] was 74%, the residual activity [38] was 100% and the residual activity [39] was 83%. For the same compound, the residual activity [40] was 100%, the residual activity [41] was 100% and the residual activity [42] was 91%. For the same compound, the residual activity [43] was 85% and the residual activity [44] was 79%.
